Reference: ChEMBL document CHEMBL5543132, “Development of (2-(Benzyloxy)phenyl)methanamine Derivatives as Potent and Selective Inhibitors of CARM1 for the Treatment of Melanoma” (J Med Chem, 2024)

How the values were obtained:
[1] = biological target: T1, Histone-arginine methyltransferase CARM1 (Homo sapiens, UniProt Q86X55)
T1 sequence (Q86X55 whole entry): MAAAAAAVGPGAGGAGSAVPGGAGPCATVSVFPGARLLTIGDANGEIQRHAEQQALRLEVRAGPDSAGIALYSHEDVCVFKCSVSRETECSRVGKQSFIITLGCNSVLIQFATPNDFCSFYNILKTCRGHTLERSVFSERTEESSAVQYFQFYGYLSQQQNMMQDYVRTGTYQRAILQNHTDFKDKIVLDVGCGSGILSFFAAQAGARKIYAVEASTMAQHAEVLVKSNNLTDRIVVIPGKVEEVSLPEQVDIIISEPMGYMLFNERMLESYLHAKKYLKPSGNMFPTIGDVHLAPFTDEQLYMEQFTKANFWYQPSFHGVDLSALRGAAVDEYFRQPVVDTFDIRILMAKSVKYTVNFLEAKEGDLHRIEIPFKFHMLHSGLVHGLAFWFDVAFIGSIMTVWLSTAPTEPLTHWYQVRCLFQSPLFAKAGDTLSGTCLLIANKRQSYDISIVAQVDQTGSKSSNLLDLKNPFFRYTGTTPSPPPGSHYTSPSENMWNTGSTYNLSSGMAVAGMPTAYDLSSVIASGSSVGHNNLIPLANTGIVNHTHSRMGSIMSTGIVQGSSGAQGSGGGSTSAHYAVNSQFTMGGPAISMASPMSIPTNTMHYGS
Description: Inhibition of CARM1 (unknown origin)

[2] = biological target: Protein arginine N-methyltransferase 3 (Homo sapiens, UniProt O60678); test: Inhibition of PRMT3 (unknown origin)
Sequence of Protein arginine N-methyltransferase 3 (O60678 whole entry): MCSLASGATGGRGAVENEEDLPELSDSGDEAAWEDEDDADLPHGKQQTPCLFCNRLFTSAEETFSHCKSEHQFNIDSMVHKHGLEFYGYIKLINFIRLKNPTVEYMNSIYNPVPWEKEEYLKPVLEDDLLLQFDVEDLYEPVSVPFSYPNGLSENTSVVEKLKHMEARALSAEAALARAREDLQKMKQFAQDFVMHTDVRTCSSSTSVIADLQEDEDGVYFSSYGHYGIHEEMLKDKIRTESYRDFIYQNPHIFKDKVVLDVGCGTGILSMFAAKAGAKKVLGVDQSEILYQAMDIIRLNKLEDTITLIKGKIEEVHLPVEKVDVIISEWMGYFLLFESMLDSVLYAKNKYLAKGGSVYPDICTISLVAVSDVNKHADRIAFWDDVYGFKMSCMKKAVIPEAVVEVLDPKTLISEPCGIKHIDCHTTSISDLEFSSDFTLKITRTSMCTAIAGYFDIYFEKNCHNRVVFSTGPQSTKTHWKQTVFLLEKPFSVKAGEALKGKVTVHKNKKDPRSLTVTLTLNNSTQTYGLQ

[3] = biological target: Protein arginine N-methyltransferase 6 (Homo sapiens, UniProt Q96LA8); test: Inhibition of PRMT6 (unknown origin)
Sequence of Protein arginine N-methyltransferase 6 (Q96LA8 whole entry): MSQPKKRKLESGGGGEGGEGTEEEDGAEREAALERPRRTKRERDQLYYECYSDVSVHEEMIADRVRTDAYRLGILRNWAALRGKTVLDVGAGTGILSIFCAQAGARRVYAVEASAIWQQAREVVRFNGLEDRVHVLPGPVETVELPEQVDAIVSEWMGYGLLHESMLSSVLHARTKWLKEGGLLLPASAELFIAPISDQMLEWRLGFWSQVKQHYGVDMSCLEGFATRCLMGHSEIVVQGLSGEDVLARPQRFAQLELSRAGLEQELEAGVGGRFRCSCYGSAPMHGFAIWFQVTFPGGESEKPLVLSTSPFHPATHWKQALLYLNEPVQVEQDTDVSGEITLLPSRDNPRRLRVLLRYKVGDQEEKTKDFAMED

[4] = biological target: Protein arginine N-methyltransferase 8 (Homo sapiens, UniProt Q9NR22); test: Inhibition of PRMT8 (unknown origin)
Sequence of Protein arginine N-methyltransferase 8 (Q9NR22 whole entry): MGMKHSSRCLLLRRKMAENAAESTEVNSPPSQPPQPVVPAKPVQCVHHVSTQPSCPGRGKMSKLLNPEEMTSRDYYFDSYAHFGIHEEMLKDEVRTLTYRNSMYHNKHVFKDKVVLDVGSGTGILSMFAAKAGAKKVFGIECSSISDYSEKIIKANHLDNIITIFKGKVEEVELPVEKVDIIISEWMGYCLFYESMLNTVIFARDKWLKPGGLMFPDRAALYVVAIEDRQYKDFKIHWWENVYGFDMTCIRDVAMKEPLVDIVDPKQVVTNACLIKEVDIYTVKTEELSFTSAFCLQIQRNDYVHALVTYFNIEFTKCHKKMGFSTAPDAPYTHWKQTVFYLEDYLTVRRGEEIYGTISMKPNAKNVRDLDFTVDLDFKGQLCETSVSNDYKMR

[5] = biological target: Protein arginine N-methyltransferase 5 (Homo sapiens, UniProt O14744); test: Inhibition of PRMT5 (unknown origin)
Sequence of Protein arginine N-methyltransferase 5 (O14744 whole entry): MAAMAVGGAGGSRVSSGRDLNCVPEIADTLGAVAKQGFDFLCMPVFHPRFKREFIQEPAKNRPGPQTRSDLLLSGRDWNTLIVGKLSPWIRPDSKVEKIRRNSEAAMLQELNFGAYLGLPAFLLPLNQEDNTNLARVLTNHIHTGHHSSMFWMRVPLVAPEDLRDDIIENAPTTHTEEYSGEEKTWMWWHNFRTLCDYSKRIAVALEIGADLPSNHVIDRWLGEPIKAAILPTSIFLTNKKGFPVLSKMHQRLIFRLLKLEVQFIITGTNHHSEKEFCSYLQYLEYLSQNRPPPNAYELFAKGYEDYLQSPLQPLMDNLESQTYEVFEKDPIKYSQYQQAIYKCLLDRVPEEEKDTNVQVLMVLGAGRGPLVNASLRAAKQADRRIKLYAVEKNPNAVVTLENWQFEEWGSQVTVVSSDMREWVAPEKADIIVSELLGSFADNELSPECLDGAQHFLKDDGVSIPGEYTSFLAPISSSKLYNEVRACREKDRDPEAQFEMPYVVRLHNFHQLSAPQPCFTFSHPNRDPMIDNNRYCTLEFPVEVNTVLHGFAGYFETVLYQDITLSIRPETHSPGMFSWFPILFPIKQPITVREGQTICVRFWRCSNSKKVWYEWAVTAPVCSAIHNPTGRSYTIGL

[6] = biological target: T2, Protein arginine N-methyltransferase 7 (Homo sapiens, UniProt Q9NVM4); test: Inhibition of PRMT7 (unknown origin)
T2 sequence (Q9NVM4 whole entry): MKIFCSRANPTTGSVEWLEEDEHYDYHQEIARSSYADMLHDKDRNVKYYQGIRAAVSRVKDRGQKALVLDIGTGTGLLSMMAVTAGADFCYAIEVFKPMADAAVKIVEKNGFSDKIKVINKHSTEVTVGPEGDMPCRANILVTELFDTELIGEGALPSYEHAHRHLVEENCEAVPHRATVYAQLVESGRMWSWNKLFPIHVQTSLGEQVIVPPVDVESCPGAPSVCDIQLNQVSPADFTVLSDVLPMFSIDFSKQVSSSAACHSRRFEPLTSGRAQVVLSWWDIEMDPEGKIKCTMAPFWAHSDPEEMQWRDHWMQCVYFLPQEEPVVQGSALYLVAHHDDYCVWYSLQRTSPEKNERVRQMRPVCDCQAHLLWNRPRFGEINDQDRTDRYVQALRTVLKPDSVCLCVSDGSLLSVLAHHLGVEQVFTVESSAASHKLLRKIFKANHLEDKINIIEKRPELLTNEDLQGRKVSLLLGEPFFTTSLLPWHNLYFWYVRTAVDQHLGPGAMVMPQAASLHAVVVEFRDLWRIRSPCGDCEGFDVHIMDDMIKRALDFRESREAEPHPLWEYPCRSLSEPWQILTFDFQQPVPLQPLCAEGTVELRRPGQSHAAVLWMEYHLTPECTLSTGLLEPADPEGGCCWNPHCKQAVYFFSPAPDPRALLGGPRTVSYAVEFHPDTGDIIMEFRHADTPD

| SMILES | IC50 [1] [nM] | IC50 [2] [nM] | IC50 [3] [nM] | IC50 [4] [nM] | IC50 [5] [nM] | IC50 [6] [nM] |
| --- | --- | --- | --- | --- | --- | --- |
| CNCC(O)CN1CCc2c(cccc2OCc2ccc(-c3nccs3)cc2)C1 (stereo unspecified) | 21 | – | – | – | – | – |
| CNC[C@H](O)CN(C)Cc1ccccc1OCc1ccc(-c2nccs2)c(Cl)c1 | – | 942 | 64 | 73 | > 100000 | > 100000 |
